In patent publication US7439372B2, “Therapeutic compounds” (Allergan, Inc., priority 2006, dated 2008):

Legend:
Assay type in all cases: cell-based
hEP2/Gqs5 = biological target: T1, hEP2/Gqs5 (Homo sapiens, UniProt P43116); test: FLIPR calcium signal, HEK-293(EBNA) cells expressing hEP2/Gqs5; details: value outside parentheses, read-out: Ca2+ Signal-EC50(nM) EP2
T1 construct: expressed in transfected cells; host or cells: HEK-293(EBNA)
Experimental: (§1) HEK-293(EBNA) cells, stably expressing one type or subtype of recombinant human prostaglandin receptors (prostaglandin receptors expressed: hDP/Gqs5; hEP1; hEP2/Gqs5; hEP3A/Gqi5; hEP4/Gqs5; hFP; hIP; hTP), were cultured in 100 mm culture dishes in high-glucose DMEM medium containing 10% fetal bovine serum, 2 mM l-glutamine, 250 µg/ml geneticin (G418) and 200 μg/ml hygromycin B as selection markers, and 100 units/ml penicillin G, 100 µg/ml streptomycin and 0.25 μg/ml amphotericin B.
(§2) Cells were seeded at a density of 5×10^4 cells per well in Biocoat® Poly-D-lysine-coated black-wall, clear-bottom 96-well plates (Becton-Dickinson) and allowed to attach overnight in an incubator at 37° C. Cells were then washed two times with HBSS-HEPES buffer (Hanks Balanced Salt Solution without bicarbonate and phenol red, 20 mM HEPES, pH 7.4) using a Denley Cellwash plate washer (Labsystems). After 45 minutes of dye-loading in the dark, using the calcium-sensitive dye Fluo-4 […] at a final concentration of 2 μM, plates were washed four times with HBSS-HEPES buffer to remove excess dye leaving 100 μl in each well. Plates were re-equilibrated to 37° C. for a few minutes.
(§3) Cells were excited with an Argon laser at 488 nm, and emission was measured through a 510-570 nm bandwidth emission filter (FLIPR™, Molecular Devices, Sunnyvale, Calif.). Drug solution was added in a 50 µl volume to each well to give the desired final concentration. The peak increase in fluorescence intensity was recorded for each well. On each plate, four wells each served as negative (HBSS-HEPES buffer) and positive controls (standard agonists: BW245C (hDP); PGE2 (hEP1; hEP2/Gqs5; hEP3A/Gqi5; hEP4/Gqs5); PGF2α (hFP); carbacyclin (hIP); U-46619 (hTP), depending on receptor). The peak fluorescence change in each drug-containing well was then expressed relative to the controls.
(§4) Compounds were tested in a high-throughput (HTS) or concentration-response (CoRe) format. In the HTS format, forty-four compounds per plate were examined in duplicates at a concentration of 10^−5 M. To generate concentration-response curves, four compounds per plate were tested in duplicates in a concentration range between 10^−5 and 10^−11 M. The duplicate values were averaged. In either, HTS or CoRe format each compound was tested on at least 3 separate plates using cells from different passages to give an n≧3.

hEP3A/Gqi5 = biological target: T2, hEP3A/Gqi5 (Homo sapiens, UniProt P43115); test: FLIPR calcium signal, HEK-293(EBNA) cells expressing hEP3A/Gqi5; details: for EC50: read-out: Ca2+ Signal-EC50(nM) EP3
T2 construct: expressed in transfected cells; host or cells: HEK-293(EBNA)
T2 sequence (P43115 1-390): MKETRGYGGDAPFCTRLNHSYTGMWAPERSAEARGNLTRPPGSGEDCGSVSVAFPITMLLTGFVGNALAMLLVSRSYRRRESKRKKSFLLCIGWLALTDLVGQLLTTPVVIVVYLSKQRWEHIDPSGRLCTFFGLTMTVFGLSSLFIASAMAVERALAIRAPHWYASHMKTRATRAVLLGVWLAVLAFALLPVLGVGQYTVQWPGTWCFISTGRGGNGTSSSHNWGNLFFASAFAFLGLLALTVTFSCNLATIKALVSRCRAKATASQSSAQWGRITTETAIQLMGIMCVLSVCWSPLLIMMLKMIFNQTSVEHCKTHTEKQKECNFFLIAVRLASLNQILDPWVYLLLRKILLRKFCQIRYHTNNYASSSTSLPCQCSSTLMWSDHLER
Experimental: as §1, §2, §3, §4

hEP4/Gqs5 = biological target: T3, hEP4/Gqs5 (Homo sapiens, UniProt P35408); test: FLIPR calcium signal, HEK-293(EBNA) cells expressing hEP4/Gqs5; details: for EC50: read-out: Ca2+ Signal-EC50(nM) EP4
T3 construct: expressed in transfected cells; host or cells: HEK-293(EBNA)
Experimental: as §1, §2, §3, §4

hTP = biological target: T4, hTP (Homo sapiens, UniProt P21731); test: FLIPR calcium signal, HEK-293(EBNA) cells expressing hTP
T4 construct: expressed in transfected cells; host or cells: HEK-293(EBNA)
T4 sequence (P21731 1-343): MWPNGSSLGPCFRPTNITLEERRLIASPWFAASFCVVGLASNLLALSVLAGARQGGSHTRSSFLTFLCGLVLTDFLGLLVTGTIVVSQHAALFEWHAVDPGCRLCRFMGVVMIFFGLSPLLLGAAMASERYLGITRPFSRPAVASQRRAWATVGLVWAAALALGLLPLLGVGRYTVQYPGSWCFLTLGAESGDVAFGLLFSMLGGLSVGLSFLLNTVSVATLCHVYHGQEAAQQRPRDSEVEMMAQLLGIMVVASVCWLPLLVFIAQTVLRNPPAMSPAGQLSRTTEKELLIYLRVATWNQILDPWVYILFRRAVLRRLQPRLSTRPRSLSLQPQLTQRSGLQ
Experimental: as §1, §2, §3, §4

hIP = biological target: T5, hIP (Homo sapiens, UniProt P43119); test: FLIPR calcium signal, HEK-293(EBNA) cells expressing hIP
T5 construct: expressed in transfected cells; host or cells: HEK-293(EBNA)
Experimental: as §1, §2, §3, §4

T5 sequence (P43119 whole entry): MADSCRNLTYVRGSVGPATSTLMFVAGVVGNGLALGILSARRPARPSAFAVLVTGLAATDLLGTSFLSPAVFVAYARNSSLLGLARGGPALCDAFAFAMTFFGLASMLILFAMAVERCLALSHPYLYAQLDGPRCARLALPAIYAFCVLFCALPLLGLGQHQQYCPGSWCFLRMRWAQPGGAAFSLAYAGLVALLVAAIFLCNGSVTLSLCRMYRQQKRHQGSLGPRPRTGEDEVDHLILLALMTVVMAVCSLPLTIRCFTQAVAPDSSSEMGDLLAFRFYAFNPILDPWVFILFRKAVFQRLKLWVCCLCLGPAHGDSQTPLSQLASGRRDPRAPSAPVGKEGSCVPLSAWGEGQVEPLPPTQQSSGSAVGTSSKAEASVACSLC
T3 sequence (P35408 whole entry): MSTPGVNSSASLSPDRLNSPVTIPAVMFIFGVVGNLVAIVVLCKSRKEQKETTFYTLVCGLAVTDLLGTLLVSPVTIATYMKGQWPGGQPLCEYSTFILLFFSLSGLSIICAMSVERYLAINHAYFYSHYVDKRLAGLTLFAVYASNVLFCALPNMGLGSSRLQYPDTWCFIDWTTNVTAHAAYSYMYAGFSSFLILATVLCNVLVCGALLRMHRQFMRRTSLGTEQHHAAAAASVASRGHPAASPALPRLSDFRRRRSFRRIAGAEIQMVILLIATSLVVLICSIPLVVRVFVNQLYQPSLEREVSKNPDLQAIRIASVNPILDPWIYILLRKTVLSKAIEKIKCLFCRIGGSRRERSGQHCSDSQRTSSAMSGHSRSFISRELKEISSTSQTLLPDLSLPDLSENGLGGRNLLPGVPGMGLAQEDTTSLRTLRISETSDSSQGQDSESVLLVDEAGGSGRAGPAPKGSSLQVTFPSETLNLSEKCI
T1 sequence (P43116 whole entry): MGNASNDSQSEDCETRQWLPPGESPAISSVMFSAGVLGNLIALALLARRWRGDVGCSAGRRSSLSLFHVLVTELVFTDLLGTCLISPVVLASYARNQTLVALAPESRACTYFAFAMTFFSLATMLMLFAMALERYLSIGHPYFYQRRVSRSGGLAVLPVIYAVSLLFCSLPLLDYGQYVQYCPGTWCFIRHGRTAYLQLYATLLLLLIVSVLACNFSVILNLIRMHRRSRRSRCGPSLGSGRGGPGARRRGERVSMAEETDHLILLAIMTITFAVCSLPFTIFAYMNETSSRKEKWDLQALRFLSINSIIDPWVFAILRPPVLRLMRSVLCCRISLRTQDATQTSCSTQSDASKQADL

Structure (SMILES) | EC50 (hEP2/Gqs5) | EC50 (hEP3A/Gqi5) | EC50 (hEP4/Gqs5) | Ca2+ Signal-EC50(nM) TP (hTP) | Ca2+ Signal-EC50(nM) IP (hIP) | Ca2+ Signal-EC50(nM) EP3 (hEP3A/Gqi5) | Ca2+ Signal-EC50(nM) EP4 (hEP4/Gqs5)
CCCCCC(O)c1ccc([C@@H]2[C@@H](CCCc3ccc(C(=O)O)s3)CCC2(Cl)Cl)cc1 (some centres unmarked) [compound 3] | 1620 nM |  |  | notactive | notactive | notactive | notactive
CCCCCC(O)c1ccc([C@H]2C(=O)CC[C@@H]2C/C=C\CCCC(=O)O)cc1 (some centres unmarked) [compound 5] | 381 nM | 4420 nM |  | notactive | notactive |  | notactive
CCCCCC(O)c1ccc([C@@H]2[C@@H](C/C=C\CCCC(=O)O)CC[C@H]2Cl)cc1 (some centres unmarked) [compound 6] | 731 nM | 182 nM |  | notactive | notactive |  | notactive
CCCCCC(O)c1ccc([C@@H]2[C@@H](C/C=C\CCCC(=O)O)CC[C@H]2O)cc1 (some centres unmarked) [compound 7] | 2510 nM | 3480 nM | > 10000 nM | notactive | notactive |  | 

Further lines, results first:

EC50 (hEP2/Gqs5) | EC50 (hEP3A/Gqi5) | EC50 (hEP4/Gqs5) | Ca2+ Signal-EC50(nM) TP (hTP) | Ca2+ Signal-EC50(nM) IP (hIP) | Ca2+ Signal-EC50(nM) EP3 (hEP3A/Gqi5) | Ca2+ Signal-EC50(nM) EP4 (hEP4/Gqs5) | Structure (SMILES)
62 nM | 8780 nM | > 10000 nM | notactive | notactive |  |  | CCCCCC(O)c1ccc([C@H]2C(=O)CC[C@@H]2CCCc2ccc(C(=O)O)s2)cc1 (some centres unmarked) [compound 1]
25 nM |  |  | notactive | notactive | notactive | notactive | CCCCCC(O)c1ccc([C@H]2C(=O)CC[C@@H]2CCCc2ccc(C(=O)O)s2)cc1 (some centres unmarked) [compound 2]
208 nM | 4550 nM | > 10000 nM | notactive | notactive |  |  | CCCCCC(O)c1ccc([C@H]2C(=O)C=C[C@@H]2CCCc2ccc(C(=O)O)s2)cc1 (some centres unmarked) [compound 11]
